# Measurements: US10400064B2, “Glycerol-based polycarbonates” (TRUSTEES OF BOSTON UNIVERSITY, priority 2014, dated 2019)
# Tested on: A549 cells
# Assay: In vitro toxicity analysis, viability after 3 days of treatment
# Format: cell-based
# Conditions: incubated with treatment for 3 days
# Protocol: Scale bar=200 nm. […] Cells were incubated with treatment for 5 days, and viability was assessed. […] Right lower panel: In vitro toxicity analysis of PGC-Cisplatin and cisplatin alone in A549 cells. Cells were incubated with treatment for 3 days, and viability was assessed.
# PGC-Pax and PGC-Cisplatin nanoparticles are synthesized using a miniemulsion technique. Briefly, the polymer is added to dichloromethane, and the organic phase is dispersed via sonication into an aqueous phase, containing sodium dodecyl sulfate as a surfactant.
smiles,measurement,value
N.N.[Cl][Pt][Cl] [cisplatin],IC50,0.9273 µg/mL
